Target: T1, human CXCR6 (Homo sapiens, UniProt O00574)
T1 construct: expressed in transfected cells
Assay: Radioligand Binding Assay (125I-CXCL16 displacement)
Details: L1.2 cells stably transfected with human CXCR6 cDNA, 0.1 nM 125I-CXCL16, 4° C., three-hour incubation; read-out: Potency (IC50)
Method: L1.2 cells stably transfected with human CXCR6 cDNA ([…]) were incubated at 4° C. in HBSS containing 0.1 % BSA and 0.1 nM of ^125I-CXCL16 plus various concentrations of Compound. Following a three-hour incubation period, cells were aspirated onto polyethyleneimine-treated GF/B glass fiber filters (PerkinElmer, Waltham, MA) with a cell harvester (Tomtec, Hamden, CT) and washed twice with washing buffer (25 mM Hepes, 500 mM NaCl, 1 mM CaCI2, 5 mM MgCI2, pH 7.1). Fifty µl of MicroScint-20 (PerkinElmer, Waltham, MA) was added to each well of the filters, and radioactive emissions (cpm) were measured on a Packard TopCount Scintillation counter (PerkinElmer, Waltham, MA). IC50 values were calculated with GraphPad Prism using 3 parameter nonlinear regression. […]

T1 sequence (O00574 whole entry): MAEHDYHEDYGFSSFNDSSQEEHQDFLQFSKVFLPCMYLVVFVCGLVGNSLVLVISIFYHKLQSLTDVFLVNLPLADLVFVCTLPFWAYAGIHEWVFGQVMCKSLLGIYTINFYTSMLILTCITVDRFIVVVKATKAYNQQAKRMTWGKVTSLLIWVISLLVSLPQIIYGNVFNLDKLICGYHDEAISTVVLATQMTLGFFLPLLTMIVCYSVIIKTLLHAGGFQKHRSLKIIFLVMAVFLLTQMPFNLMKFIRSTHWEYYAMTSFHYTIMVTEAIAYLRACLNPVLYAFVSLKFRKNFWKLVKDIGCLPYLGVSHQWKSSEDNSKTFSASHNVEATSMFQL

SMILES | IC50 [nM]
CCOc1cc(NC(=O)c2ccnn2C)ccc1S(=O)(=O)Nc1cccc(C(F)(F)F)c1 [Example 1.068] | ≤ 200
CCOc1cc(NC(=O)[C@@H](O)C(C)C)ccc1S(=O)(=O)Nc1ccc(Cl)c(OC)c1 [Example 1.154] | 200 to 750
CCOc1cc(NC(C)=O)ccc1S(=O)(=O)Nc1cccc(C(F)(F)F)c1 [Example 1.212] | 2000 to 20000
CCc1cc(NC(=O)[C@@H](CO)C2CC2)ccc1S(=O)(=O)Nc1cccc(OC(F)(F)F)c1 [Example 1.150] | ≤ 200
CCOc1cc(NC(=O)C(CC(C)C)C(=O)O)ccc1S(=O)(=O)Nc1cccc(OC(F)(F)F)c1 (stereo not drawn) [Example 1.421] | ≤ 200
CCOc1cc(NC(=O)[C@@H](CO)C(C)CC)ccc1S(=O)(=O)Nc1cccc(OC(F)(F)F)c1 (stereo partly drawn) [Example 1.297] | ≤ 200
CCOc1cc(NC(=O)[C@@H](CO)C(C)C)ccc1S(=O)(=O)Nc1ccc(C)c(CC)c1 [Example 1.356] | ≤ 200
CC(=O)Nc1ccc(S(=O)(=O)Nc2cccc(C(F)(F)F)c2)c(Br)c1 [Example 1.130] | 2000 to 20000
Cc1cc(NC(=O)[C@@H]2CCCN2)ccc1S(=O)(=O)Nc1cccc(C(F)(F)F)c1 [Example 1.328] | 750 to 2000
Cn1nccc1C(=O)Nc1ccc(S(=O)(=O)Nc2cccc(C(F)(F)F)c2)c(C#N)c1 [Example 1.187] | 2000 to 20000
CCOc1cc(NC(=O)c2ccns2)ccc1S(=O)(=O)Nc1cccc(C(F)(F)F)c1 [Example 1.567] | ≤ 200
CCOc1cc(NC(=O)c2cccn(C)c2=O)ccc1S(=O)(=O)Nc1cccc(OC(F)(F)F)c1 [Example 1.260] | 2000 to 20000
COc1cc(NC(=O)C2CCCCC2C)ccc1S(=O)(=O)Nc1cccc(C(F)(F)F)c1 (stereo not drawn) [Example 1.417] | 750 to 2000
Cc1cc(NC(=O)[C@@H]2CCCN2C)ccc1S(=O)(=O)Nc1cccc(C(F)(F)F)c1 [Example 1.422] | 2000 to 20000
COc1cc(NC(=O)c2ccnn2C)ccc1S(=O)(=O)Nc1ccc(OC(F)(F)F)c(Cl)c1 [Example 1.559] | 750 to 2000
COc1cc(NC(=O)c2ccns2)ccc1S(=O)(=O)Nc1cccc(C(F)(F)F)c1 [Example 1.115] | ≤ 200
CCOc1cc(NC(=O)C(OC)c2ccccc2)ccc1S(=O)(=O)Nc1cccc(OC(F)(F)F)c1 (stereo not drawn) [Example 1.399] | ≤ 200
CCOc1cc(NC(=O)C(C)C(O)C2CCOCC2)ccc1S(=O)(=O)Nc1cccc(OC(F)(F)F)c1 (stereo not drawn) [Example 1.072] | 200 to 750
CCOc1cc(NC(=O)C2CCCCN2)ccc1S(=O)(=O)Nc1cccc(OC(F)(F)F)c1 (stereo not drawn) [Example 1.300] | 200 to 750
Cc1cc(NC(=O)C2CCCO2)ccc1S(=O)(=O)Nc1cccc(C(F)(F)F)c1 (stereo not drawn) [Example 1.271] | 2000 to 20000
CCOc1cc(NC(=O)C(NC)c2ccccc2)ccc1S(=O)(=O)Nc1cccc(OC(F)(F)F)c1 (stereo not drawn) [Example 1.408] | ≤ 200
Cc1cc(NC(=O)c2c(C)noc2C)ccc1S(=O)(=O)Nc1cccc(C(F)(F)F)c1 [Example 1.325] | 2000 to 20000
CCOc1cc(NC(=O)[C@@H](O)C(C)C)ccc1S(=O)(=O)Nc1ccc(Cl)cc1 [Example 1.398] | 200 to 750

SMILES | IC50 [nM]
COc1cc(NC(=O)[C@@H]2C=CCN2C)ccc1S(=O)(=O)Nc1cccc(C(F)(F)F)c1 [Example 1.194] | 2000 to 20000
CCOc1cc(NC(=O)[C@@H]2CC=CC[C@H]2O)ccc1S(=O)(=O)Nc1cccc(OC(F)(F)F)c1 [Example 1.505] | ≤ 200
Cc1cc(NC(=O)c2cscn2)ccc1S(=O)(=O)Nc1cccc(C(F)(F)F)c1 [Example 1.359] | 2000 to 20000
CCOc1cc(NC(=O)[C@@H](NC(N)=O)C(C)C)ccc1S(=O)(=O)Nc1cccc(OC(F)(F)F)c1 [Example 1.334] | ≤ 200
CCOc1cc(NC(=O)C2CCCOC2)ccc1S(=O)(=O)Nc1cccc(OC(F)(F)F)c1 (stereo not drawn) [Example 1.420] | 200 to 750
CCOc1cc(NC(=O)CC(O)CO)ccc1S(=O)(=O)Nc1cccc(OC(F)(F)F)c1 (stereo not drawn) [Example 1.387] | 750 to 2000
COc1cc(NC(=O)c2ccnn2C)ccc1S(=O)(=O)Nc1ccc(F)c(OC(F)(F)F)c1 [Example 1.409] | ≤ 200
CCOc1cc(NC(=O)C(C)(O)c2ccccc2)ccc1S(=O)(=O)Nc1cccc(OC(F)(F)F)c1 (stereo not drawn) [Example 1.095] | ≤ 200
CCOc1cc(NC(=O)[C@@H](O)C(C)C)ccc1S(=O)(=O)Nc1cccc(OC)c1C [Example 1.290] | 750 to 2000
CCCc1cc(NC(=O)[C@@H](O)C(C)C)ccc1S(=O)(=O)Nc1cccc(OC(F)(F)F)c1 [Example 1.071] | ≤ 200
CCc1cc(NC(=O)[C@@H](O)C(C)C)ccc1S(=O)(=O)Nc1cccc(OC(F)(F)F)c1 [Example 1.059] | ≤ 200
Cc1cc(NC(=O)c2ccnn2C)cc(C)c1S(=O)(=O)Nc1cccc(C(F)(F)F)c1 [Example 1.504] | 200 to 750
Cc1cc(NC(=O)c2ccc(F)cc2)ccc1S(=O)(=O)Nc1cccc(C(F)(F)F)c1 [Example 1.002] | 200 to 750
CCOc1cc(NC(=O)[C@H]2CC=CC[C@@H]2CO)ccc1S(=O)(=O)Nc1cccc(OC(F)(F)F)c1 [Example 1.453] | ≤ 200
CCOc1cc(NC(=O)[C@@H](CO)c2ccccc2)ccc1S(=O)(=O)Nc1cccc(Cl)c1C [Example 1.221] | 2000 to 20000
COc1cc(NC(=O)C2CCCC2)ccc1S(=O)(=O)Nc1cccc(C(F)(F)F)c1 [Example 1.497] | 750 to 2000
CCOc1cc(NC(=O)[C@H]2CC=CC[C@@H]2C(=O)O)ccc1S(=O)(=O)Nc1cccc(OC(F)(F)F)c1 [Example 1.358] | ≤ 200
CCOc1cc(NC(=O)C(CC2CCOCC2)C(=O)O)ccc1S(=O)(=O)Nc1cccc(OC(F)(F)F)c1 (stereo not drawn) [Example 1.118] | ≤ 200
CCOc1cc(NC(=O)[C@@H](O)c2ccccc2)ccc1S(=O)(=O)Nc1cccc(OC(F)(F)F)c1 [Example 1.168] | ≤ 200
COc1cc(NC(=O)c2ccnn2C)ccc1S(=O)(=O)Nc1cccc(OC(F)(F)F)c1 [Example 1.239] | ≤ 200
COc1cc(NC(=O)C2CC3C=CC2C3)ccc1S(=O)(=O)Nc1cccc(C(F)(F)F)c1 (stereo not drawn) [Example 1.379] | 200 to 750
CCOc1cc(NC(=O)[C@H](O)C2CCCC2)ccc1S(=O)(=O)Nc1cccc(OC(F)(F)F)c1 [Example 1.281] | ≤ 200
CCN[C@H](C(=O)Nc1ccc(S(=O)(=O)Nc2ccc(C)c(OC(F)(F)F)c2)c(OCC)c1)C(C)C [Example 1.296] | ≤ 200

SMILES | IC50 [nM]
CCOc1cc(NC(=O)[C@@H](NC(C)=O)C(C)C)ccc1S(=O)(=O)Nc1ccc(C)c(C(F)(F)F)c1 [Example 1.543] | ≤ 200
COc1cc(NC(=O)c2ccnn2C)ccc1S(=O)(=O)Nc1cccc(C)c1 [Example 1.242] | 2000 to 20000
CCOc1cc(NC(=O)[C@H]2CC[C@@](C)(O)CC2)ccc1S(=O)(=O)Nc1cccc(OC(F)(F)F)c1 [Example 1.043] | 2000 to 20000
CCOc1cc(NC(=O)[C@@H](O)C(C)C)ccc1S(=O)(=O)Nc1cccc(OC(F)(F)F)c1 [Example 1.105] | ≤ 200
Cc1cc(NC(=O)c2ccnnc2)ccc1S(=O)(=O)Nc1cccc(C(F)(F)F)c1 [Example 1.093] | 750 to 2000
CCOc1cc(NC(=O)C(C(=O)O)C2CCCC2)ccc1S(=O)(=O)Nc1cccc(OC(F)(F)F)c1 (stereo not drawn) [Example 1.479] | ≤ 200
COc1cc(NC(=O)c2ccnn2C)ccc1S(=O)(=O)Nc1ccc(Cl)cc1 [Example 1.114] | 200 to 750
Cc1cc(NC(=O)c2cnco2)ccc1S(=O)(=O)Nc1cccc(C(F)(F)F)c1 [Example 1.252] | 750 to 2000
COc1c(S(=O)(=O)Nc2cccc(OC(F)(F)F)c2)ccc(NC(=O)c2ccnn2C)c1C [Example 1.203] | 2000 to 20000
CCOc1cc(NC(=O)C(CO)C(C)C)ccc1S(=O)(=O)Nc1ccc(Cl)c(OC)c1 (stereo not drawn) [Example 1.018] | ≤ 200
O=C(Nc1ccc(S(=O)(=O)Nc2cccc(C(F)(F)F)c2)c(F)c1)c1ccccc1 [Example 1.549] | 2000 to 20000
COc1cc(NC(=O)c2ccnn2C)ccc1S(=O)(=O)Nc1cccc(C(F)(F)F)c1 [Example 1.153] | 200 to 750
COc1ccc(NS(=O)(=O)c2ccc(NC(=O)c3ccnn3C)cc2OC)cc1C(F)(F)F [Example 1.580] | 200 to 750
C=Cc1ccc(NS(=O)(=O)c2ccc(NC(=O)[C@@H](CO)C3CC3)cc2OCC)cc1C [Example 1.146] | ≤ 200
CCOc1cc(NS(=O)(=O)c2ccc(NC(=O)[C@@H](CO)C(C)C)cc2OCC)ccc1Cl [Example 1.488] | 200 to 750
CCOc1cc(NC(=O)c2ccc(C)nc2)ccc1S(=O)(=O)Nc1cccc(OC(F)(F)F)c1 [Example 1.149] | ≤ 200
CCOc1cc(NC(=O)[C@@H](CO)c2ccccc2)ccc1S(=O)(=O)Nc1ccc(Cl)c(Cl)c1 [Example 1.175] | 200 to 750
CCOc1cc(NC(=O)C(CO)CC2CC=CCC2)ccc1S(=O)(=O)Nc1cccc(OC(F)(F)F)c1 (stereo not drawn) [Example 1.428] | ≤ 200
CCOc1cc(NC(=O)C(O)C2CCCOC2)ccc1S(=O)(=O)Nc1cccc(OC(F)(F)F)c1 (stereo not drawn) [Example 1.094] | ≤ 200
CCOc1cc(NC(=O)[C@@H](CO)C(C)C)ccc1S(=O)(=O)Nc1ccc(C)c(F)c1 [Example 1.213] | 200 to 750
CCOc1cc(NC(=O)[C@@H](CO)C(C)C)ccc1S(=O)(=O)Nc1cccc(C(C)C)c1 [Example 1.155] | ≤ 200
CCOc1cc(NC(=O)[C@H]2CCOC[C@@H]2CC)ccc1S(=O)(=O)Nc1cccc(OC(F)(F)F)c1 (racemic) [Example 1.065] | ≤ 200
CCOc1cc(NC(=O)C2CC3C=CC2O3)ccc1S(=O)(=O)Nc1cccc(OC(F)(F)F)c1 (stereo not drawn) [Example 1.508] | ≤ 200
